These results are taken from patent US20080138291A1, “Sulfonamide Derivatives Having Carbonic Anhydrase Inhibiting Activity and their Use as Therapeutic and Diagnostic Agents” (UNION LIFE SCIENCES LTD., priority 2005, published 2008).

Broadly, the Ki is a measure of affinity in units of concentration, obtained from inhibition or displacement.

The target in series [1] is hCA IX (Homo sapiens, UniProt Q16790). Nature of the series: CA inhibition, CO2 hydration method, isozyme IX (catalytic domain). The format is biochemical. Particulars: Table 2, catalytic domain of human cloned isozyme.
For series [2], the target named is hCA II (Homo sapiens, UniProt P00918). As to the kind of experiment: CA inhibition, CO2 hydration method, isozyme II. Particulars: Table 2; human cloned isozyme, CO2 hydration method. The format is biochemical.
Series [3] deals with hCA XII (Homo sapiens, UniProt O43570). As to the kind of experiment: CA inhibition, CO2 hydration method, isozyme XII (catalytic domain). The format is biochemical. Particulars: Table 2, catalytic domain of human cloned isozyme.
Sequence of hCA XII (O43570 30-289 limits assumed): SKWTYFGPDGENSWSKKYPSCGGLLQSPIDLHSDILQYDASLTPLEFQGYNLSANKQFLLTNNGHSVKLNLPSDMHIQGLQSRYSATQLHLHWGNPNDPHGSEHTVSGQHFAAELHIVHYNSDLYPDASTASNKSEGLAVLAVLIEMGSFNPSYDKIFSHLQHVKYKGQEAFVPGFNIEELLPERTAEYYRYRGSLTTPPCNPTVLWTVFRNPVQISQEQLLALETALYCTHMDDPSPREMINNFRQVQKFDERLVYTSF
Series [4] has as its target hCA I (Homo sapiens, UniProt P00915). Nature of the series: CA inhibition, CO2 hydration method, isozyme I. The format is biochemical. Particulars: Table 2, human cloned isozyme, read-out: KI hCA I.
Series [5] deals with human red cells.
The test system of series [6] is human red cells. Nature of the series: Ex vivo penetration through red blood cell membranes. Particulars: 3 mM sulfonamide in 5 mM Tris buffer pH 7.4.

Sequence of hCA I (P00915 whole entry): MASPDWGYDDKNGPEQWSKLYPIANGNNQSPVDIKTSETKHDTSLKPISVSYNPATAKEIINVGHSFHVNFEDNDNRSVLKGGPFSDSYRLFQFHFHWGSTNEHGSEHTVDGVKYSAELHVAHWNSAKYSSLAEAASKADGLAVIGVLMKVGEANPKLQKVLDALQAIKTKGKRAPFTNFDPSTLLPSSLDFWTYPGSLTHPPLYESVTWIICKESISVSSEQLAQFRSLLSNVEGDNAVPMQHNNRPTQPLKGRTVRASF

On to `NS(=O)(=O)c1ccc(NC(=O)Nc2ccc(-c3c4ccc(=O)cc-4oc4cc(O)ccc34)c(C(=O)O)c2)c(F)c1` [compound 6, (2-Fluoro-4-sulfamoylphenyl)ureido fluorescein], for which the Ki in series [1] was 21 nM; in series [2] it was 40 nM; in series [3] it was 10 nM; in series [4], 1200 nM.

For the compound `NS(=O)(=O)c1nnc(NS(=O)(=O)c2ccc(NC(=O)Nc3ccc(-c4c5ccc(=O)cc-5oc5cc(O)ccc45)c(C(=O)O)c3)cc2)s1` [compound 11, [4-(5-Sulfamoyl-[1,3,4]thiadiazol-2-ylsulfamoyl)-phenyl]-ureido fluorescein], the Ki came out at 6 nM in series [1], 13 nM in series [2], 3 nM in series [3] and 410 nM in series [4].

For `CC(=O)/N=c1/sc(S(N)(=O)=O)nn1C` [MZA, methazolamide, reference compound], the “penetration through red blood cell membranes” value in series [5] is listed as “easily penetrate through biological membranes”. The “[sulfonamide] in red blood cells, t = 30 min, HPLC” value in series [6] (30 min, HPLC method) is 170 µM. Also, the “[sulfonamide] in red blood cells, t = 30 min, ES” value in series [6] (30 min, electronic spectroscopy) is 169 µM. In addition, the “[sulfonamide] in red blood cells, t = 60 min, HPLC” value in series [6] (60 min, HPLC method) came to 168 µM. Moreover, the “[sulfonamide] in red blood cells, t = 60 min, ES” value in series [6] (60 min, electronic spectroscopy) came to 168 µM. Also, in series [6] (48 h, HPLC method), the “[sulfonamide] in red blood cells, t = 48 h, HPLC” value is 167 µM. Also, the “[sulfonamide] in red blood cells, t = 48 h, ES” value in series [6] (48 h, electronic spectroscopy) worked out at 169 µM.

As for `NS(=O)(=O)c1ccc(NC(=O)Nc2ccc(-c3c4ccc(=O)cc-4oc4cc(O)ccc34)c(C(=O)O)c2)c(I)c1` [compound 9, (2-Iodo-4-sulfamoylphenyl)ureido fluorescein], the inhibition constant Ki worked out at 21 nM in series [1], 43 nM in series [2], 7 nM in series [3] and 1350 nM in series [4].

As for `NS(=O)(=O)c1ccc(CNS(=O)(=O)c2ccc(NC(=O)Nc3ccc(-c4c5ccc(=O)cc-5oc5cc(O)ccc45)c(C(=O)O)c3)cc2)cc1` [compound 10, [4-(4-Sulfamoyl-benzylsulfamoyl)-phenyl]-ureido fluorescein], the Ki in series [1] was determined as 7 nM; in series [2], 14 nM; in series [3], 5 nM; in series [4], 520 nM.

With `NS(=O)(=O)c1ccccc1NC(=O)Nc1ccc(-c2c3ccc(=O)cc-3oc3cc(O)ccc23)c(C(=O)O)c1` [compound 3, (2-Sulfamoylphenyl)ureido fluorescein], the Ki in series [1] was 46 nM; in series [2], 76 nM; in series [3], 18 nM; in series [4], 1900 nM.

On to `NS(=O)(=O)c1cccc(NC(=O)Nc2ccc(-c3c4ccc(=O)cc-4oc4cc(O)ccc34)c(C(=O)O)c2)c1` [compound 2, (3-Sulfamoylphenyl)ureido fluorescein], for which the Ki was determined as 30 nM in series [1], 43 nM in series [2], 9 nM in series [3] and 1800 nM in series [4].

For the compound `NS(=O)(=O)c1ccc(NC(=O)Nc2ccc(-c3c4ccc(=O)cc-4oc4cc(O)ccc34)c(C(=O)O)c2)cc1` [compound 1, (4-Sulfamoylphenyl)ureido fluorescein], the inhibition constant Ki is 21 nM in series [1], 36 nM in series [2], 11 nM in series [3] and 1700 nM in series [4].

For the compound `NS(=O)(=O)c1ccc(CNC(=O)Nc2ccc(-c3c4ccc(=O)cc-4oc4cc(O)ccc34)c(C(=O)O)c2)cc1` [compound 4, (4-Sulfamoylphenylmethyl)ureido fluorescein], the Ki in series [1] stood at 21 nM; in series [2], 40 nM; in series [3], 8 nM; in series [4] it was 1560 nM.
